For 26 compounds, T/C results are on record in PubChem BioAssay AID330 (DTP/NCI, 2004).

The subject of this experiment is P388 leukemia ip, CD2F1 mice, survival T/C. Kind of experiment: NCI In Vivo Anticancer Drug Screen. Data for tumor model P388 Leukemia (intraperitoneal) in CD2F1 (CDF1) mice. Particulars: endpoint: median survival time, higher = longer survival. Here is the method:
The antitumor activity of compounds was measured in mice bearing transplantable tumors. Survival or tumor size were measured and the results are expressed as the measurement made in the treated group (T) divided by the measurement made in the vehicle treated control group (C). The tumor model used in this assay is P388 Leukemia (intraperitoneal) in CD2F1 (CDF1) mice

[1] abbreviates: dose: 50.0 mg/kg/injection, schedule: Q01DX009 (ip), vehicle: Klucel (hydroxypropylcellulose) (HPC).
Setting [2] is: dose: 100.0 mg/kg/injection, schedule: Q01DX009 (ip), vehicle: Klucel (hydroxypropylcellulose) (HPC).
Setting [3] is: dose: 200.0 mg/kg/injection, schedule: Q01DX009 (ip), vehicle: Klucel (hydroxypropylcellulose) (HPC).
[4] abbreviates: dose: 400.0 mg/kg/injection, schedule: Q01DX009 (ip), vehicle: Klucel (hydroxypropylcellulose) (HPC).
Setting [5] is: dose: 100.0 mg/kg/injection, schedule: Q04DX003 (ip), vehicle: saline with Tween-80.
Where [6] appears, read: dose: 200.0 mg/kg/injection, schedule: Q04DX003 (ip), vehicle: saline with Tween-80.
[7] abbreviates: dose: 400.0 mg/kg/injection, schedule: Q04DX003 (ip), vehicle: saline with Tween-80.
[8] abbreviates: dose: 12.5 mg/kg/injection, schedule: Q01DX009 (ip), vehicle: Klucel (hydroxypropylcellulose) (HPC).
[9] abbreviates: dose: 25.0 mg/kg/injection, schedule: Q01DX009 (ip), vehicle: Klucel (hydroxypropylcellulose) (HPC).
Where [10] appears, read: dose: 12.5 mg/kg/injection, schedule: Q01DX005 (ip), vehicle: Klucel (hydroxypropylcellulose) (HPC).
Setting [11] is: dose: 25.0 mg/kg/injection, schedule: Q01DX005 (ip), vehicle: Klucel (hydroxypropylcellulose) (HPC).
The mark [12] stands for this setting: dose: 50.0 mg/kg/injection, schedule: Q01DX005 (ip), vehicle: Klucel (hydroxypropylcellulose) (HPC).
[13] abbreviates: dose: 6.25 mg/kg/injection, schedule: Q01DX005 (ip), vehicle: Klucel (hydroxypropylcellulose) (HPC).

Where “and” joins values, the source holds several entries; their conditions need not be identical. Equal values may be shown once. Toxic doses and inconclusive results are not listed.

With `O=C1c2ccccc2C(=C2c3ccccc3C(=O)c3ccccc32)c2ccccc21`, the T/C was 99 % of control under setting [1], 91 % of control under setting [2], 92 % of control under setting [3] and 97 % of control under setting [4].
Regarding `c1ccc(SC(Sc2ccccc2)=C2CCCCC2)cc1`, the T/C was 100 % of control under setting [1], 106 % of control under setting [2] and 90 % of control under setting [3].
In the case of `CCN(C(=S)Nc1cccc(C(F)(F)F)c1)c1ccccc1`, the T/C under setting [1] was 101 % of control and the T/C under setting [2] is 108 % of control.
Turning to `CC(C)(C)N1C(=O)[N+]2(CCCCC2)N=C1[O-]`, the T/C is 93 % of control under setting [5], 99 % of control under setting [6] and 86 % of control under setting [7].
On to `CN=C(NC)c1ccc(NC(=O)c2ccc(C(=O)Nc3ccc(C(=NC)NC)c(C)c3)cc2)cc1C`, for which the T/C (dose: 6.25 mg/kg/injection, schedule: Q01DX005 (ip), vehicle: saline with Tween-80) is 111 % of control and 118 % of control; the T/C (dose: 12.5 mg/kg/injection, schedule: Q01DX005 (ip), vehicle: saline with Tween-80) was 119 % of control; the T/C (dose: 25.0 mg/kg/injection, schedule: Q01DX005 (ip), vehicle: saline with Tween-80) was 164 % of control and 173 % of control.
Turning to `CC1OC2=C(C(=O)c3ccccc3C2=O)C(O)C1O` (stereo unspecified), the T/C is, setting by setting: (dose: 25.0 mg/kg/injection, schedule: Q01DX001 (ip), vehicle: Klucel (hydroxypropylcellulose) (HPC)) 96 % of control; (dose: 50.0 mg/kg/injection, schedule: Q01DX001 (ip), vehicle: Klucel (hydroxypropylcellulose) (HPC)) 96 % of control.
Turning to `COc1cc([C@@H]2c3cc4c(cc3[C@H](O)[C@H]3COC(=O)[C@@H]23)OCO4)cc(OC)c1OC`, the T/C (dose: 7.5 mg/kg/injection, schedule: Q01DX010 (ip), vehicle: saline) is 109 % of control; the T/C (dose: 25.0 mg/kg/injection, schedule: Q04DX003 (ip), vehicle: saline sonified) is 95 % of control; the T/C (dose: 30.0 mg/kg/injection, schedule: Q01DX010 (ip), vehicle: saline) is 172 % of control; the T/C (dose: 50.0 mg/kg/injection, schedule: Q04DX003 (ip), vehicle: saline sonified) was 112 % of control; the T/C (dose: 100.0 mg/kg/injection, schedule: Q04DX003 (ip), vehicle: saline sonified) was 154 % of control.
Consider `N#CCc1nn(-c2ccccc2)c2ncnc(N)c12`, for which the T/C reads like this: (dose: 6.25 mg/kg/injection, schedule: Q01DX009 (ip), vehicle: Klucel (hydroxypropylcellulose) (HPC)) 103 % of control; under setting [8], 100 % of control and 114 % of control and 94 % of control; under setting [9], 108 % of control and 97 % of control (2×); under setting [1], 100 % of control and 120 % of control and 98 % of control; under setting [2], 106 % of control.
With `CC(=O)Nc1ccc(Nc2cc(S(=O)(=O)O)c(N)c3c2C(=O)c2ccccc2C3=O)cc1`, the T/C is, setting by setting: (dose: 60.0 mg/kg/injection, schedule: Q01DX005 (ip), vehicle: saline) 92 % of control; (dose: 120.0 mg/kg/injection, schedule: Q01DX005 (ip), vehicle: saline) 95 % of control; (dose: 240.0 mg/kg/injection, schedule: Q01DX005 (ip), vehicle: saline) 92 % of control.
On to `Cc1ccc(NC(=S)SCc2ccc3c(c2)OCO3)cc1Cl`, for which the T/C runs as follows: (dose: 50.0 mg/kg/injection, schedule: Q01DX009 (ip), vehicle: suspension in saline) 106 % of control; (dose: 100.0 mg/kg/injection, schedule: Q01DX009 (ip), vehicle: suspension in saline) 94 % of control; (dose: 200.0 mg/kg/injection, schedule: Q01DX009 (ip), vehicle: suspension in saline) 102 % of control.
With `CCOC(=O)CC1Cc2ccc3ccc(OC)cc3c2C1=O` (stereo unspecified), the T/C is, setting by setting: (dose: 12.5 mg/kg/injection, schedule: Q01DX009 (ip), vehicle: distilled water + Tween-80) 102 % of control; (dose: 25.0 mg/kg/injection, schedule: Q01DX009 (ip), vehicle: distilled water + Tween-80) 100 % of control; (dose: 50.0 mg/kg/injection, schedule: Q01DX009 (ip), vehicle: distilled water + Tween-80) 95 % of control; (dose: 100.0 mg/kg/injection, schedule: Q01DX009 (ip), vehicle: distilled water + Tween-80) 97 % of control; (dose: 200.0 mg/kg/injection, schedule: Q01DX009 (ip), vehicle: distilled water + Tween-80) 93 % of control.
With `Cc1ccc(S(=O)(=O)N(C)C2c3ccccc3Oc3ccccc32)cc1`, the T/C runs as follows: under setting [8], 106 % of control; under setting [9], 106 % of control; under setting [1], 106 % of control and 87 % of control; under setting [2], 91 % of control; under setting [3], 92 % of control; under setting [4], 92 % of control.
Take `Cc1ccc(S(=O)(=O)OCC2CCCC2COS(=O)(=O)c2ccc(C)cc2)cc1` (stereo unspecified): the T/C is, setting by setting: under setting [2], 100 % of control; under setting [3], 106 % of control; under setting [4], 105 % of control.
Regarding `CCOc1ccc(C(/C(Cl)=N/O)C(Cl)(Cl)Cl)cc1` (stereo unspecified), the T/C is, setting by setting: under setting [10], 96 % of control; under setting [11], 91 % of control; under setting [12], 100 % of control.
Turning to `NC(=O)NC(=O)/C=C/C(=O)OCCCl`, the T/C is 102 % of control under setting [13], 89 % of control under setting [10], 94 % of control under setting [11] and 101 % of control under setting [12].
As to `c1ccc(N/N=C2/c3ccccc3CC23OC3c2ccccc2)cc1` (stereo unspecified), the T/C by setting is: under setting [9], 90 % of control; under setting [1], 90 % of control; under setting [2], 88 % of control; under setting [3], 87 % of control; under setting [4], 88 % of control.
For the compound `COc1ccc2c(c1)CC[C@@H]1[C@@H]2CC[C@@]2(C)[C@H]1CC[C@@]2(O)C(F)=C(F)F`, the T/C was 88 % of control under setting [5] and 88 % of control under setting [6].
On to `CC(C)N(C(=O)COc1ccc(Cl)cc1Cl)c1ccccc1`, for which the T/C runs as follows: under setting [5], 104 % of control; under setting [6], 100 % of control; under setting [7], 100 % of control.
On to `O=C1OC2(c3ccccc31)c1cc(I)c(O)c(I)c1Oc1c2cc(I)c(O)c1I`, for which the T/C was 91 % of control under setting [5] and 95 % of control under setting [6].
For the compound `O=c1oc(-c2ccc(Cl)cc2[N+](=O)[O-])nc2ccccc12`, the T/C is 108 % of control (dose: 50.0 mg/kg/injection, schedule: Q01DX009 (ip), vehicle: saline); 104 % of control (dose: 100.0 mg/kg/injection, schedule: Q01DX009 (ip), vehicle: saline); 100 % of control (dose: 200.0 mg/kg/injection, schedule: Q01DX009 (ip), vehicle: saline).
Regarding `CCn1c2ccccc2n2c(=O)c(Cl)c(C)c(C#N)c12`, the T/C was 100 % of control (dose: 60.0 mg/kg/injection, schedule: Q01DX005 (ip), vehicle: saline with Tween-80); 98 % of control (dose: 120.0 mg/kg/injection, schedule: Q01DX005 (ip), vehicle: saline with Tween-80); 97 % of control (dose: 240.0 mg/kg/injection, schedule: Q01DX005 (ip), vehicle: saline with Tween-80).
As for `CCN(CC)CCOc1ccc(-c2cc(-c3ccccc3)nc(N)n2)cc1`, the T/C was 106 % of control (dose: 25.0 mg/kg/injection, schedule: Q01DX005 (ip), vehicle: saline); 98 % of control and 100 % of control and 106 % of control (dose: 50.0 mg/kg/injection, schedule: Q01DX005 (ip), vehicle: saline); 111 % of control and 114 % of control and 123 % of control (dose: 100.0 mg/kg/injection, schedule: Q01DX005 (ip), vehicle: saline).
With `CN(C)CCn1c2nc(=O)[nH]c(=O)c-2nc2ccccc21`, the T/C under setting [13] was 93 % of control, the T/C under setting [10] was 100 % of control, the T/C under setting [11] is 101 % of control and the T/C under setting [12] was 98 % of control.
As for `N#CC1C(=O)NC(=O)C(C#N)C12CCCCC2` (stereo unspecified), the T/C is 105 % of control (dose: 50.0 mg/kg/injection, schedule: Q04DX003 (ip), vehicle: saline with Tween-80); 100 % of control under setting [5]; 105 % of control under setting [6].
As for `O=CC(=C\c1ccco1)/C(C=O)=C\c1ccco1`, the T/C is 97 % of control (dose: 50.0 mg/kg/injection, schedule: Q01DX005 (ip), vehicle: saline with Tween-80) and 112 % of control (dose: 100.0 mg/kg/injection, schedule: Q01DX005 (ip), vehicle: saline with Tween-80).
With `N=C(N)N1CCNc2ccc(Cl)cc2C1`, the T/C by setting is: (dose: 100.0 mg/kg/injection, schedule: Q04DX002 (ip), vehicle: saline with Tween-80) 96 % of control; (dose: 200.0 mg/kg/injection, schedule: Q04DX002 (ip), vehicle: saline with Tween-80) 91 % of control.
